We go through twelve molecules from ChEMBL document CHEMBL4311936, “Synthesis and structure-activity relationship studies of IgG-binding peptides focused on the C-terminal histidine residue” (Medchemcomm, 2019).

Bridge positions count the residues as written; N and C are the ends. Square brackets hold non-standard residues; d marks the D form. Peptide text beside a SMILES is read from it. * marks the point of attachment. ξ: configuration not given here. NH(4-OH-benzyl) = Oc1ccc(CN*)cc1; ξ3Pal = NC(Cc1cccnc1)C(=O)O; ξ4Pal = NC(Cc1ccncc1)C(=O)O; ξ2Thi = NC(Cc1cccs1)C(=O)O; ξCha = NC(CC1CCCCC1)C(=O)O; ξOrn = NCCCC(N)C(=O)O

Assay [1] can be described thus: Binding affinity to human IgG assessed as dissociation constant by SPR analysis. (Surface plasmon resonance follows binding to a sensor surface in real time, without labels.)
The species named for assay [2] is Homo sapiens. Put plainly: Binding affinity to human IgG assessed as association rate constant by SPR analysis.
The species entered for assay [3] is Homo sapiens. Put plainly: Binding affinity to human IgG assessed as dissociation rate constant by SPR analysis.

For the molecule `CC(=O)N[C@@H](CC(=O)O)C(=O)N[C@H]1CSSC[C@@H](C(=O)N[C@H](C(=O)N[C@@H](Cc2ccccc2)C(=O)N[C@H](Cc2ccccn2)C(N)=O)[C@@H](C)O)NC(=O)[C@H](Cc2c[nH]c3ccccc23)NC(=O)[C@H](C(C)C)NC(=O)[C@H](CC(C)C)NC(=O)[C@H](CCC(=O)O)NC(=O)CNC(=O)[C@H](CC(C)C)NC(=O)[C@H](Cc2cnc[nH]2)NC(=O)[C@H](Cc2ccc(O)cc2)NC(=O)[C@H](C)NC1=O`, the Kd (commonly a measure of binding affinity in units of concentration) in assay [1] was 23 nM. Further, the Ka in the assay filed under Homo sapiens [2] turned out to be 1.32e+06 M⁻¹ s⁻¹. The Kdiss in the assay filed under Homo sapiens [3] came out at 0.0304 s⁻¹.

Regarding `CC(=O)N[C@@H](CC(=O)O)C(=O)N[C@H]1CSSC[C@@H](C(=O)N[C@H](C(=O)N[C@@H](Cc2ccccc2)C(=O)N[C@H](Cc2ccccn2)C(N)=O)[C@@H](C)O)NC(=O)[C@H](Cc2c[nH]c3ccccc23)NC(=O)[C@H](C(C)C)NC(=O)[C@H](CC(C)C)NC(=O)[C@H](CCC(=O)O)NC(=O)CNC(=O)[C@H](CCCCN)NC(=O)[C@H](Cc2cnc[nH]2)NC(=O)[C@H](Cc2ccc(O)cc2)NC(=O)[C@H](C)NC1=O`, in assay [1], the Kd was 579 nM. Besides, the Ka in the assay filed under Homo sapiens [2] amounted to 593000 M⁻¹ s⁻¹. In addition, in the assay filed under Homo sapiens [3], the Kdiss worked out at 0.344 s⁻¹.

On to `CC(=O)N[C@@H](CC(=O)O)C(=O)N[C@H]1CSSC[C@@H](C(=O)N[C@H](C(=O)N[C@@H](Cc2ccccc2)C(=O)N[C@@H](C)C(N)=O)[C@@H](C)O)NC(=O)[C@H](Cc2c[nH]c3ccccc23)NC(=O)[C@H](C(C)C)NC(=O)[C@H](CC(C)C)NC(=O)[C@H](CCC(=O)O)NC(=O)CNC(=O)[C@H](CCCCN)NC(=O)[C@H](Cc2cnc[nH]2)NC(=O)[C@H](Cc2ccc(O)cc2)NC(=O)[C@H](C)NC1=O` (Ac-DCAYHKGELVWCTFA-NH2; disulfide 2-12), for which, in assay [1], the Kd came out at 841 nM. Moreover, the Ka in the assay listed under Homo sapiens [2] came to 567000 M⁻¹ s⁻¹. For the same molecule, the Kdiss in the assay filed under Homo sapiens [3] came to 0.477 s⁻¹.

Take `CC(=O)N[C@@H](CC(=O)O)C(=O)N[C@H]1CSSC[C@@H](C(=O)N[C@H](C(=O)N[C@@H](Cc2ccccc2)C(=O)N[C@@H](Cc2ccccc2)C(N)=O)[C@@H](C)O)NC(=O)[C@H](Cc2c[nH]c3ccccc23)NC(=O)[C@H](C(C)C)NC(=O)[C@H](CC(C)C)NC(=O)[C@H](CCC(=O)O)NC(=O)CNC(=O)[C@H](CCCCN)NC(=O)[C@H](Cc2cnc[nH]2)NC(=O)[C@H](Cc2ccc(O)cc2)NC(=O)[C@H](C)NC1=O` (Ac-DCAYHKGELVWCTFF-NH2; disulfide 2-12): in assay [1], the Kd amounted to 506 nM. Further, the Ka in the assay filed under Homo sapiens [2] turned out to be 713000 M⁻¹ s⁻¹. Also, the Kdiss in the assay listed under Homo sapiens [3] is 0.361 s⁻¹.

`CC(=O)N[C@@H](CC(=O)O)C(=O)N[C@H]1CSSC[C@@H](C(=O)N[C@H](C(=O)N[C@@H](Cc2ccccc2)C(=O)N[C@@H](Cc2cnc[nH]2)C(=O)NCc2ccc(O)cc2)[C@@H](C)O)NC(=O)[C@H](Cc2c[nH]c3ccccc23)NC(=O)[C@H](C(C)C)NC(=O)[C@H](CC(C)C)NC(=O)[C@H](CCC(=O)O)NC(=O)CNC(=O)[C@H](CCCCN)NC(=O)[C@H](Cc2cnc[nH]2)NC(=O)[C@H](Cc2ccc(O)cc2)NC(=O)[C@H](C)NC1=O` (Ac-DCAYHKGELVWCTFH-{NH(4-OH-benzyl)}; disulfide 2-12): the Kd in assay [1] was found to be 203 nM. The Ka in the assay filed under Homo sapiens [2] was 603000 M⁻¹ s⁻¹. In the assay listed under Homo sapiens [3], the Kdiss is 0.122 s⁻¹.

`CC(=O)N[C@@H](CC(=O)O)C(=O)N[C@H]1CSSC[C@@H](C(=O)N[C@H](C(=O)N[C@@H](Cc2ccccc2)C(=O)N[C@@H](Cc2cnc[nH]2)C(=O)NCC(N)=O)[C@@H](C)O)NC(=O)[C@H](Cc2c[nH]c3ccccc23)NC(=O)[C@H](C(C)C)NC(=O)[C@H](CC(C)C)NC(=O)[C@H](CCC(=O)O)NC(=O)CNC(=O)[C@H](CCCCN)NC(=O)[C@H](Cc2cnc[nH]2)NC(=O)[C@H](Cc2ccc(O)cc2)NC(=O)[C@H](C)NC1=O` (Ac-DCAYHKGELVWCTFHG-NH2; disulfide 2-12): the Kd in assay [1] amounted to 338 nM. For the same molecule, the Ka in the assay filed under Homo sapiens [2] amounted to 615000 M⁻¹ s⁻¹. Further, the Kdiss in the assay listed under Homo sapiens [3] was 0.208 s⁻¹.

Turning to `CC(=O)N[C@@H](CC(=O)O)C(=O)N[C@H]1CSSC[C@@H](C(=O)N[C@H](C(=O)N[C@@H](Cc2ccccc2)C(=O)N[C@@H](Cc2c[nH]c3ccccc23)C(N)=O)[C@@H](C)O)NC(=O)[C@H](Cc2c[nH]c3ccccc23)NC(=O)[C@H](C(C)C)NC(=O)[C@H](CC(C)C)NC(=O)[C@H](CCC(=O)O)NC(=O)CNC(=O)[C@H](CCCCN)NC(=O)[C@H](Cc2cnc[nH]2)NC(=O)[C@H](Cc2ccc(O)cc2)NC(=O)[C@H](C)NC1=O` (Ac-DCAYHKGELVWCTFW-NH2; disulfide 2-12), the Kd in assay [1] worked out at 1220 nM.

Regarding `CC(=O)N[C@@H](CC(=O)O)C(=O)N[C@H]1CSSC[C@@H](C(=O)N[C@H](C(=O)N[C@@H](Cc2ccccc2)C(=O)NC(Cc2cccs2)C(N)=O)[C@@H](C)O)NC(=O)[C@H](Cc2c[nH]c3ccccc23)NC(=O)[C@H](C(C)C)NC(=O)[C@H](CC(C)C)NC(=O)[C@H](CCC(=O)O)NC(=O)CNC(=O)[C@H](CCCCN)NC(=O)[C@H](Cc2cnc[nH]2)NC(=O)[C@H](Cc2ccc(O)cc2)NC(=O)[C@H](C)NC1=O` (some centres not stated) (Ac-DCAYHKGELVWCTF[ξ2Thi]-NH2; disulfide 2-12), the Kd in assay [1] was 220 nM. For the same molecule, in the assay filed under Homo sapiens [2], the Ka stood at 771000 M⁻¹ s⁻¹. In the assay listed under Homo sapiens [3], the Kdiss was 0.169 s⁻¹.

On to `CC(=O)N[C@@H](CC(=O)O)C(=O)N[C@H]1CSSC[C@@H](C(=O)N[C@H](C(=O)N[C@@H](Cc2ccccc2)C(=O)NC(Cc2cccnc2)C(N)=O)[C@@H](C)O)NC(=O)[C@H](Cc2c[nH]c3ccccc23)NC(=O)[C@H](C(C)C)NC(=O)[C@H](CC(C)C)NC(=O)[C@H](CCC(=O)O)NC(=O)CNC(=O)[C@H](CCCCN)NC(=O)[C@H](Cc2cnc[nH]2)NC(=O)[C@H](Cc2ccc(O)cc2)NC(=O)[C@H](C)NC1=O` (some centres not stated) (Ac-DCAYHKGELVWCTF[ξ3Pal]-NH2; disulfide 2-12), for which the Kd in assay [1] is 550 nM. For the same molecule, in the assay listed under Homo sapiens [2], the Ka was found to be 772000 M⁻¹ s⁻¹. In addition, the Kdiss in the assay listed under Homo sapiens [3] was found to be 0.425 s⁻¹.

For `CC(=O)N[C@@H](CC(=O)O)C(=O)N[C@H]1CSSC[C@@H](C(=O)N[C@H](C(=O)N[C@@H](Cc2ccccc2)C(=O)NC(Cc2ccncc2)C(N)=O)[C@@H](C)O)NC(=O)[C@H](Cc2c[nH]c3ccccc23)NC(=O)[C@H](C(C)C)NC(=O)[C@H](CC(C)C)NC(=O)[C@H](CCC(=O)O)NC(=O)CNC(=O)[C@H](CCCCN)NC(=O)[C@H](Cc2cnc[nH]2)NC(=O)[C@H](Cc2ccc(O)cc2)NC(=O)[C@H](C)NC1=O` (some centres not stated) (Ac-DCAYHKGELVWCTF[ξ4Pal]-NH2; disulfide 2-12), the Kd in assay [1] came out at 533 nM. The Ka in the assay filed under Homo sapiens [2] was 730000 M⁻¹ s⁻¹. Also, the Kdiss in the assay filed under Homo sapiens [3] is 0.389 s⁻¹.

As to `CC(=O)N[C@@H](CC(=O)O)C(=O)N[C@H]1CSSC[C@@H](C(=O)N[C@H](C(=O)N[C@@H](Cc2ccccc2)C(=O)NC(CC2CCCCC2)C(N)=O)[C@@H](C)O)NC(=O)[C@H](Cc2c[nH]c3ccccc23)NC(=O)[C@H](C(C)C)NC(=O)[C@H](CC(C)C)NC(=O)[C@H](CCC(=O)O)NC(=O)CNC(=O)[C@H](CCCCN)NC(=O)[C@H](Cc2cnc[nH]2)NC(=O)[C@H](Cc2ccc(O)cc2)NC(=O)[C@H](C)NC1=O` (some centres not stated) (Ac-DCAYHKGELVWCTF[ξCha]-NH2; disulfide 2-12), the Kd in assay [1] was 165 nM. Also, in the assay filed under Homo sapiens [2], the Ka is 776000 M⁻¹ s⁻¹. Moreover, in the assay filed under Homo sapiens [3], the Kdiss worked out at 0.128 s⁻¹.

For `CC(=O)N[C@@H](CC(=O)O)C(=O)N[C@H]1CSSC[C@@H](C(=O)N[C@H](C(=O)N[C@@H](Cc2ccccc2)C(=O)NC(CCCN)C(N)=O)[C@@H](C)O)NC(=O)[C@H](Cc2c[nH]c3ccccc23)NC(=O)[C@H](C(C)C)NC(=O)[C@H](CC(C)C)NC(=O)[C@H](CCC(=O)O)NC(=O)CNC(=O)[C@H](CCCCN)NC(=O)[C@H](Cc2cnc[nH]2)NC(=O)[C@H](Cc2ccc(O)cc2)NC(=O)[C@H](C)NC1=O` (some centres not stated) (Ac-DCAYHKGELVWCTF[ξOrn]-NH2; disulfide 2-12), the Kd in assay [1] was 710 nM.
